Results taken from patent publication US20250064846A1, “TREATMENT AND PREVENTION OF TRIGEMINAL NEURALGIA” (THE JOHNS HOPKINS UNIVERSITY, priority 2022, published 2025).

Legend:
NRF2 = assay: NRF2/ARE Luciferase Reporter Assay (HEK293 stable cell line); type: cell-based, human; details: NRF2-dependent luciferase activity, cells treated for 6 hours; read-out: EC50 for stimulating NRF2
Experimental: NRF2/ARE Luciferase Reporter Assay NRF2 activity was monitored with a reporter cell line in which changes in NRF2 activity are coupled to the expression of firefly luciferase (NRF2/ARE Luciferase Reporter HEK293 Stable Cell Line). Luciferase activity was quantified with the Luciferase Assay System as per the manufacturer's instructions. Briefly, cells were plated at 125,000 cells/well in a 24-well plate. The following day, cells were treated with either vehicle or varying doses of sulforaphane, exemestane, or JQ-1 for 6 hours. Cells were then lysed in passive lysis buffer (Promega E1941) supplemented with protease inhibitors (Sigma). Lysates were then cleared at 16,000 g for 15 minutes at 4° C. 15 μL of each lysate was mixed with 5 μL of luciferase assay substrate (Promega). Total light was measured using a luminometer with a 10 second integration time with a delay of 2 seconds. Luciferase measurements were normalized to total protein and reported as normalized to the vehicle condition.

TRPA1 = target: T1, TRPA1 (Homo sapiens, UniProt O75762); assay: Calcium imaging of HEK293 cells transiently expressing WT TRPA1; type: cell-based; details: for calcium response of cells transfected with the vector backbone alone: 100 μM iodoacetamide, control vector; for calcium response of cells transfected with the vector backbone alone / calcium response of cells expressing WT TRPA1: 1 mM H2O2 or 100 μM 4-HNE; for EC50: concentration-Ca2+ response, HEK-293 cells transfected with WT TRPA1
T1 construct: expressed in transfected cells; host or cells: HEK293
T1 sequence (O75762 whole entry): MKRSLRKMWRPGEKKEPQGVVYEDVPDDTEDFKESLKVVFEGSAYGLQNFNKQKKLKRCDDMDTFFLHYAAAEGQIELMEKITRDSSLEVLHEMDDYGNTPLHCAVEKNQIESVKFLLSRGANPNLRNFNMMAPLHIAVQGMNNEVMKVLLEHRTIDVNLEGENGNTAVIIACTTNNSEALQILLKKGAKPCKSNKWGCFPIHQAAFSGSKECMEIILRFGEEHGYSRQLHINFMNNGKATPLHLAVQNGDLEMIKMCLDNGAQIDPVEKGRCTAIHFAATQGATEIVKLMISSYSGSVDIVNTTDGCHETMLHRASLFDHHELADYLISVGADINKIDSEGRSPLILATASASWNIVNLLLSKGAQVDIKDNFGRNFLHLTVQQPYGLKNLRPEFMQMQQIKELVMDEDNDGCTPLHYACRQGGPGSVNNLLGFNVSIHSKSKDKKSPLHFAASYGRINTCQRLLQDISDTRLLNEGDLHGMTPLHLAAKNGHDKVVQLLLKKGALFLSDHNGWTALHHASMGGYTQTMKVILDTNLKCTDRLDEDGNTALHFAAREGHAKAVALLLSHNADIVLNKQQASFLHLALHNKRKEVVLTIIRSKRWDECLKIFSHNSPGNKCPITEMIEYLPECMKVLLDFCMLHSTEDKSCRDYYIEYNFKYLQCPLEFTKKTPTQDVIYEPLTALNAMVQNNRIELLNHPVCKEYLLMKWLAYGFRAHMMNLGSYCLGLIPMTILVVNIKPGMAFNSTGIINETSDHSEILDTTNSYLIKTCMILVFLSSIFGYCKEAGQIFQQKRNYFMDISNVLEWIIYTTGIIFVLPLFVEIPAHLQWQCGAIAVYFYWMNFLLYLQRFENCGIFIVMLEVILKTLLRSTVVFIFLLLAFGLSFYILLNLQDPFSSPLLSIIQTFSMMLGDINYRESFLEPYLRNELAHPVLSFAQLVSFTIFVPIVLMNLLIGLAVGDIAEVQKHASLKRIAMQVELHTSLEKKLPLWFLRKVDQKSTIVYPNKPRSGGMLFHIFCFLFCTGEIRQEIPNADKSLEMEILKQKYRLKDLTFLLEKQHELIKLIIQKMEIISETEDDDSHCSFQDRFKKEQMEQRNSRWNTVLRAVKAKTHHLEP
Experimental: (§1) Calcium Imaging and Analysis Calcium imaging and analysis was performed as previously described (See Meixiong, J. et al. Elife 8, (2019)). Briefly, cells were imaged in calcium imaging buffer (CIB; 10 mM HEPES, 1.2 mM NaHCO3, 130 mM NaCl, 3 mM KCl, 2.5 mM CaCl2, 0.6 mM MgCl2, 20 mM glucose, and 20 mM sucrose at pH 7.4 and 290-300 mOsm). To monitor changes in intracellular [Ca^2+]([Ca^2+]i), cells were loaded with either 1 μM Fura 2-AM (HEK293 cells) or 1 μM Fluo 4-AM (trigeminal neurons) for 30 min in the dark at 37° C. in CIB just prior to imaging. With Fura 2-AM, emission at 510 nm was monitored following excitation at both 340 nm and 380 nm. With Fluo 4-AM, emission at 520 nm was monitored following excitation at 488 nm. Cells were identified as positively responding if [Ca^2+]i rose by 15% compared to baseline. Damaged, detached, high-baseline, and motion-activated cells were excluded from analysis.
(§2) HEK293 cells were plated on poly-D-lysine-coated coverslips and transiently transfected with the vector backbone or constructs encoding WT or mutant TRPA1. Unless otherwise noted, cells were imaged for 30 s to establish a baseline before compounds were added. Vehicle was first applied for 30 s, after which 100 μM iodoacetamide, 1 mM H2O2, or 100 μM 4-HNE was applied. CSF from cases and controls was diluted into calcium imaging buffer 1:50 prior to each trial. 50 μM of the non-selective TRP channel inhibitor ruthenium red was applied at the end of every imaging trial.

[1] = target: T2, mutant TRPA1 (Cys621, Cys641, Cys665, Lys721) (Homo sapiens, UniProt O75762, C621S/C641S/C665S); assay: Calcium imaging of HEK293 cells transiently expressing mutant TRPA1; type: cell-based; details: 100 μM iodoacetamide, 1 mM H2O2 or 100 μM 4-HNE
T2 construct: expressed in transfected cells; host or cells: HEK293
T2 sequence (O75762 whole entry C621S/C641S/C665S): as the sequence (O75762 whole entry) above, with C621S, C641S, C665S counted along it
Experimental: as §1, §2
(§3) ROS directly activated TRPA1 by covalently bonding or modifying a network of cysteine and lysine residues within the channel. Extensive work by several groups has pinpointed a collection of key residues in TRPA1, including Cys421, Cys621, Cys641, Cys665, and Lys721. To test which residues among these sense H2O2 and 4-HNE, each was mutated individually and in various combinations (FIGS. 7A and 7B). Triply mutating cysteines Cys621, Cys641, Cys665 to serine rendered TRPA1 insensitive to both iodoacetamide and H2O2 (FIGS. 2D-2E). […] These four residues position TRPA1 as both a key sensor and transducer of oxidative stress.

[2] = test system: mutant TRPA1 (Cys621, Cys641, Cys665, Lys721); assay: as above; type: cell-based; details: 100 μM 4-HNE
Experimental: as §1, §2, §3

[3] = test system: constrictive mouse model of trigeminal neuralgia; assay: Mechanical allodynia (Von Frey filament) after constriction of the maxillary nerve; type: in vivo; details: WT mice, vs vehicle
Experimental: (§4) Constriction of the Maxillary Nerve Constriction of the maxillary division of trigeminal nerve was performed as previously described (See Benedetti, A., et al., Biochimica Et Biophysica Acta Bba—Lipids Lipid Metabolism 620, 281-296 (1980) and Vos, B., et al J Neurosci 14, 2708-2723 (1994)). The procedure was performed under direct visualization and control with a surgical microscope. Mice were first anesthetized with ketamine (100 mg/kg, i.p.) and xylazine (12.5 mg/kg, i.p.) and monitored by pinching the skin between the toes with forceps and monitoring for withdrawal. Mice were restrained with adhesive tape to a sterilized polystyrene board. Upon sufficient anesthesia, the scalp was shaved and an anterior to posterior skin incision was made at the midline to expose the nasal and maxillary bones. The maxillary nerve was exposed and carefully dissected free from the surrounding connective tissue. The distal end of the maxillary nerve was then loosely constricted using 8-0 silk sutures as a ligature. The sutures were tied using a slip knot followed by a normal knot, after which any remaining suture was cut free. The incision was then closed with a 4-0 silk suture. In the sham procedure, the left maxillary nerve was exposed but not constricted. Mice were monitored and rehydrated until fully recovered from anesthesia.
(§5) Pharmacologic Treatments Mice were dosed with either sulforaphane (10 mg/kg, i.p.), exemestane (10 mg/kg, i.p.), letrozole (10 mg/kg, i.p.), (+)-JQ-1 (40 mg/kg, i.p.), (−)-JQ-1 (40 mg/kg, i.p.), or ascorbate (100 mg/kg, i.p.) as indicated below. Mice were first dosed daily for two days before surgery and again daily just after behavior testing. For local exemestane treatment, exemestane (5 μL, 25 μg total) was applied directly to the maxillary nerve. Mice received a single dose during surgery. Mice were dosed with AM-0902 (30 mg/kg, p.o.). Mice were treated with AM-0902 were dosed 30 min prior to behavior testing. Mice were dosed with tamoxifen (75 mg/kg, i.p.). Mice were dosed once every 24 hrs over 5 consecutive days. Behavioral and molecular tests were only performed 7 or more days after the final tamoxifen injection.
Mechanical Allodynia Mechanical allodynia was assessed in C57BL/6J, TRPA1^+/+, TRPA1^−/−, Keap1(f/f), and Keap1(f/f/CMV-CreER mice using a Von Frey filament as previously outlined (See Benedetti, A., et al., Biochimica Et Biophysica Acta Bba—Lipids Lipid Metabolism 620, 281-296 (1980) and Vos, B., et al J Neurosci 14, 2708-2723 (1994)). Animals were placed individually in transparent plastic boxes and allowed to acclimate to the environment for at least 30 min before testing. After habituation, a 0.04 g force Von Frey filament was used to stimulate the territory innervated by the maxillary nerve, including the vibrissal skin pad. Each mouse's response to the filament was scored from 0-4 on the scale below. Each mouse was scored ten times per day. Changes in mechanical allodynia were considered relative to sham- or vehicle-treated animal controls. Behavior was assessed concomitantly or in a blocked manner with consideration for both genotype and treatment. • 0—no response • 1—non-defensive response to the stimulus (e.g., mouse non-defensively explores filament) • 2—withdrawal response (e.g., mouse turns head away from filament) • 3—escape/attack response (e.g., mouse moves body away from filament and assumes crouching position against the box wall; actively attacks filament by biting and/or grabbing) • 4—asymmetric face grooming (e.g., mouse wipes stimulated facial area in uninterrupted series of at least three face-wash strokes)

[4] = test system: constrictive mouse model of trigeminal neuralgia; assay: Cold allodynia (ice-cold acetone) after constriction of the maxillary nerve; type: in vivo; details: WT mice, vs vehicle
Experimental: as §4, §5
Cold Allodynia Cold allodynia was assessed in C57BL/6J, TRPA1^+/+, TRPA1^−/−, Keap1(f/f), and Keap1(f/f)/CMV-CreER mice using ice-cold acetone as previously outlined (See Yoon, C., et al., Pain 59, 369-376 (1994)). Animals were placed individually in transparent plastic boxes and allowed to acclimatize to the environment for at least 30 min before testing. After habituation, 20 μl of cold acetone was applied to the ligated vibrissal pad skin surface. Cold allodynia was measured as the average time spent wiping the region in a 60 s period, with a maximum of 5 seconds between bouts of wiping. Allodynia was measured three times with 10 min between intervals. Changes in cold allodynia were considered relative to sham- or vehicle-treated animal controls. Behavior was assessed concomitantly or in a blocked manner with consideration for both genotype and treatment.

[5] = test system: constrictive mouse model of trigeminal neuralgia; assay: Mechanical allodynia (Von Frey filament) after constriction of the maxillary nerve; type: in vivo; details: NRF2−/− mice; AM-0902 30 mg/kg, p.o., 30 min prior to behavior testing
[6] = test system: constrictive mouse model of trigeminal neuralgia; assay: Cold allodynia (ice-cold acetone) after constriction of the maxillary nerve; type: in vivo; details: NRF2−/− mice; AM-0902 30 mg/kg, p.o., 30 min prior to behavior testing
[7] = AM-0902 30 mg/kg, p.o., 30 min prior to behavior testing
[8] = i.p. daily for two days before surgery and daily after behavior testing, sulforaphane, exemestane, letrozole 10 mg/kg, JQ-1 40 mg/kg, ascorbate 100 mg/kg

| SMILES | EC50 (NRF2) | calcium response of cells transfected with the vector backbone alone (TRPA1) | calcium response of cells expressing WT TRPA1 (TRPA1) | EC50 (TRPA1) | sensitivity of triple mutant TRPA1 (Cys621, Cys641, Cys665 to serine) [1] | further results |
| --- | --- | --- | --- | --- | --- | --- |
| CCCCCC(O)/C=C/C=O (stereo not shown) [4-HNE, 4-hydroxynonenal] | 12 µM | Neither iodoacetamide, H2O2, nor 4-HNE elicited a calcium response | activated cells expressing TRPA1 | 48 µM | still activated | sensitivity of triple cysteine mutant TRPA1 after also mutating Lys721 [2]: no longer sensitive |
| Cn1cnc2ncn(Cc3nc(CCc4ccc(Cl)cc4)no3)c(=O)c21 [AM-0902, 1-({3-(2-(4-chlorophenyl)ethyl]-1,2,4-oxadiazol-5-yl}methyl)-7-methylpurin-6-one] | – | – | – | – | – | mechanical allodynia [3, 7]: reduced; cold allodynia [4, 7]: reduced; mechanical allodynia [5]: lowered; cold allodynia [6]: lowered |
| OO [H2O2] | 14 µM | Neither iodoacetamide, H2O2, nor 4-HNE elicited a calcium response | activated cells expressing TRPA1 | 133 µM | insensitive | – |
| NC(=O)CI [iodoacetamide] | – | Neither iodoacetamide, H2O2, nor 4-HNE elicited a calcium response | – | – | insensitive | – |
| N#Cc1ccc(C(c2ccc(C#N)cc2)n2cncn2)cc1 [letrozole] | – | – | – | – | – | mechanical allodynia (sensitivity to crude touch) [3, 8]: neither letrozole nor (−)-JQ-1 did; cold allodynia (ice-cold acetone) [4, 8]: neither letrozole nor (−)-JQ-1 did |
